Data from ChEMBL document CHEMBL4808177, “Use of Intramolecular 1,5-Sulfur-Oxygen and 1,5-Sulfur-Halogen Interactions in the Design of N-Methyl-5-aryl-N-(2,2,6,6-tetramethylpiperidin-4-yl)-1,3,4-thiadiazol-2-amine SMN2 Splicing Modulators” (J Med Chem, 2021).
In brackets after ≈: the same amount, converted by molar mass.

Assays:
[1] = Intrinsic clearance in rat liver microsomes; assay type: ADME, Microsome; conditions: read-out: CLH
[2] = Solubility of the compound at pH 6.8 by high-throughput miniaturized shake flask solubility assay; assay type: physicochemical; conditions: buffer
[3] = Modulation of SMN2 splicing in myoblast cell line derived from the SMNdelta7 mouse model assessed as increase in SMN level measured as fold activation treated for 24 hrs by ELISA; assay type: functional, Primary myoblast
[4] = Modulation of SMN2 splicing activity in myoblast cell line derived from the SMNdelta7 mouse model assessed as increase in SMN level treated for 24 hrs by ELISA relative to control; assay type: functional, Primary myoblast
[5] = AUC (extrapolated) in Sprague-Dawley rat at 3 mg/kg, po measured up to 7 hrs by HPLC-MS/MS analysis; assay type: ADME, organism-based; design: route oral, dose 3 mg/kg, time <=7; conditions: in vivo
[6] = Clearance in Sprague-Dawley rat at 1 mg/kg, iv and 3 mg/kg, po measured up to 7 hrs by HPLC-MS/MS analysis; assay type: ADME, organism-based; conditions: in vivo
[7] = Volume of distribution at steady state in Sprague-Dawley rat at 1 mg/kg, iv and 3 mg/kg, po measured up to 7 hrs by HPLC-MS/MS analysis; assay type: ADME, organism-based; conditions: in vivo, read-out: Vdss
[8] = Cmax in Sprague-Dawley rat at 1 mg/kg, iv and 3 mg/kg, po measured up to 7 hrs by HPLC-MS/MS analysis; assay type: ADME, organism-based; design: dose 3 mg/kg, time <=7; conditions: in vivo
[9] = Half life in Sprague-Dawley rat at 1 mg/kg, iv and 3 mg/kg, po measured up to 7 hrs by HPLC-MS/MS analysis; assay type: ADME, organism-based; conditions: in vivo
[10] = Apparent permeability across basolateral to apical side in human Caco-2 cells; assay type: ADME, cell-based
[11] = Apparent permeability across apical to basolateral side in human Caco-2 cells; assay type: ADME, cell-based
[12] = Apparent permeability from basolateral to apical side in MDCK-MDR1 cells; assay type: ADME, cell-based, Canis lupus familiaris; conditions: dog
[13] = Apparent permeability from apical to basolateral side in MDCK-MDR1 cells; assay type: ADME, cell-based, Canis lupus familiaris; conditions: dog
[14] = Drug uptake in Sprague-Dawley rat brain at 3 mg/kg, po measured after 7 hrs by HPLC-MS/MS analysis; assay type: ADME, organism-based; conditions: read-out: Drug uptake
[15] = Drug uptake in SMN C/+ allele mouse plasma at 50 mg/kg, po measured after 4 hrs; assay type: ADME, organism-based
[16] = Drug uptake in SMN C/+ allele mouse brain at 50 mg/kg, po measured after 4 hrs; assay type: ADME, organism-based; conditions: read-out: Drug uptake
[17] = In vivo modulation of SMN2 splicing activity in SMN C/+ allele mouse model assessed as fold increase in full length SMN protein level in brain at 50 mg/kg, po once daily for 5 days relative to control; assay type: functional; conditions: time 5 day
[18] = Intrinsic clearance in mouse liver microsomes; assay type: ADME, Microsome; conditions: read-out: CLH

`CN(c1ccc(-c2cc3ccccc3s2)nn1)C1CC(C)(C)NC(C)(C)C1` showed a microsomal CLint [1] of 23 µL/min/mg and a solubility thermodynamic [2] of 980 µM (≈ 373 µg/mL).
In the case of `CN(c1nnc(-c2ccc(-c3ccn(C)c(=O)c3)cc2O)s1)C1CC(C)(C)NC(C)(C)C1`, the EC50 [3] is reported as 61 nM, the “fold change (FC)” value [4] is reported as 3.4 and the AUC at 7 h [5] is reported as 0.227 µM·h. The clearance [6] was 163 mL/min/kg, the Vd [7] was 10.7 L/kg and the Cmax [8] was 38 nM. It also gave a half-life [9] of 1.3 h, a Papp B→A [10] of 6.8 ×10⁻⁶ cm/s and a Papp A→B [11] of 3.7 ×10⁻⁶ cm/s.
For `CN(c1nnc(-c2cc(F)c(-c3cn[nH]c3)cc2F)s1)C1CC(C)(C)NC(C)(C)C1`, the EC50 [3] was 20 nM, the “fold change (FC)” value [4] was 3.1 and the microsomal CLint [1] was 48 µL/min/mg. It also gave a solubility thermodynamic [2] of 122 µM (≈ 52.8 µg/mL), a Papp B→A [12] of 16 ×10⁻⁶ cm/s and a Papp A→B [13] of 3 ×10⁻⁶ cm/s. The concentration at 7 h [14] was 141 nM.
In the case of `CN(c1nnc(-c2sc3ccc(C#N)cc3c2Cl)s1)C1CC(C)(C)NC(C)(C)C1`, the EC50 [3] is reported as 92 nM, the “fold change (FC)” value [4] is reported as 2.5 and the microsomal CLint [1] is reported as under 25 µL/min/mg. The solubility thermodynamic [2] was 51 µM (≈ 22.7 µg/mL).
For `CN(c1nnc(-c2sc3ccccc3c2Cl)s1)C1CC(C)(C)NC(C)(C)C1`, the EC50 [3] was 530 nM, the “fold change (FC)” value [4] was 2.8 and the microsomal CLint [1] was 20 µL/min/mg. The solubility thermodynamic [2] was 240 µM (≈ 101 µg/mL).
With `CN(c1nnc(-c2ccc(-c3cn[nH]c3)c(F)c2F)s1)C1CC(C)(C)NC(C)(C)C1` the EC50 [3] was 33 nM, the “fold change (FC)” value [4] was 3 and the microsomal CLint [1] was 46 µL/min/mg. The solubility thermodynamic [2] was 48 µM (≈ 20.8 µg/mL), the Papp B→A [12] was 8 ×10⁻⁶ cm/s and the Papp A→B [13] was 3 ×10⁻⁶ cm/s. For the same molecule, the concentration at 7 h [14] was 498 nM, the concentration at 4 h [15] was 3600 nM and the concentration at 4 h [16] was 2500 nM. The “fold change (FC)” value [17] was 1.6.
With `CN(c1nnc(-c2ccc(-n3cccn3)cc2O)s1)C1CC(C)(C)NC(C)(C)C1` the EC50 [3] was 170 nM and the “fold change (FC)” value [4] was 2.8.
In the case of `COc1cc(-c2cn[nH]c2)ccc1-c1nnc(N(C)C2CC(C)(C)NC(C)(C)C2)s1`, the EC50 [3] is reported as 38 nM and the “fold change (FC)” value [4] is reported as 2.9.
For `COc1cc(-c2cnn(C)c2)ccc1-c1nnc(N(C)C2CC(C)(C)NC(C)(C)C2)s1`, the EC50 [3] was 44 nM and the “fold change (FC)” value [4] was 2.5.
For `CN(c1nnc(-c2ccc(-c3cn[nH]c3)cc2F)s1)C1CC(C)(C)NC(C)(C)C1`, the EC50 [3] was 43 nM, the “fold change (FC)” value [4] was 3.1 and the microsomal CLint [1] was 59 µL/min/mg. For the same molecule, the solubility thermodynamic [2] was over 1000 µM, the Papp B→A [12] was 15 ×10⁻⁶ cm/s and the Papp A→B [13] was 4 ×10⁻⁶ cm/s. It also gave a concentration at 7 h [14] of 66 nM.
With `Cc1cc(-c2ccn(C)c(=O)c2)ccc1-c1nnc(N(C)C2CC(C)(C)NC(C)(C)C2)s1` the EC50 [3] was 1100 nM and the “fold change (FC)” value [4] was 2.6.
For `CN(c1nnc(-c2ccc(-c3cn[nH]c3)cc2Cl)s1)C1CC(C)(C)NC(C)(C)C1`, the EC50 [3] was 34 nM, the “fold change (FC)” value [4] was 2.5 and the microsomal CLint [1] was 24 µL/min/mg. The solubility thermodynamic [2] was 44000 µM (≈ 19000 µg/mL), the Papp B→A [12] was 12 ×10⁻⁶ cm/s and the Papp A→B [13] was 3 ×10⁻⁶ cm/s. It also gave a concentration at 7 h [14] of 240 nM.
In the case of `COc1cc(-c2ccn(C)c(=O)c2)ccc1-c1nnc(N(C)C2CC(C)(C)NC(C)(C)C2)s1`, the EC50 [3] is reported as 130 nM and the “fold change (FC)” value [4] is reported as 3.2.
In the case of `CN(c1nnc(-c2ccc(-c3ccn(C)c(=O)c3)cc2OC(F)(F)F)s1)C1CC(C)(C)NC(C)(C)C1`, the EC50 [3] is reported as 900 nM and the “fold change (FC)” value [4] is reported as 2.2.
In the case of `CN(c1nnc(-c2c(O)cc(-c3cn[nH]c3)cc2Cl)s1)C1CC(C)(C)NC(C)(C)C1`, the EC50 [3] is reported as 3 nM, the “fold change (FC)” value [4] is reported as 2.5 and the solubility thermodynamic [2] is reported as 220 µM (≈ 98.3 µg/mL). The microsomal CLint [18] was 116 µL/min/mg.
For `CN(c1nnc(-c2cc(F)c(-c3cn[nH]c3)cc2Cl)s1)C1CC(C)(C)NC(C)(C)C1`, the EC50 [3] was 48 nM, the “fold change (FC)” value [4] was 3.2 and the microsomal CLint [1] was 54 µL/min/mg. It also gave a solubility thermodynamic [2] of 34 µM (≈ 15.3 µg/mL), a Papp B→A [12] of 23 ×10⁻⁶ cm/s and a Papp A→B [13] of 4 ×10⁻⁶ cm/s. The concentration at 7 h [14] was 185 nM.
For `CN(c1nnc(-c2ccc(-c3cn[nH]c3)cc2O)s1)C1CC(C)(C)NC(C)(C)C1`, the EC50 [3] was 400 nM and the “fold change (FC)” value [4] was 2.5.
With `CN(c1nnc(-c2c(O)cc(-c3cn[nH]c3)cc2F)s1)C1CC(C)(C)NC(C)(C)C1` the EC50 [3] was 6 nM, the “fold change (FC)” value [4] was 2.6 and the solubility [2] was “Insoluble”. The Papp B→A [12] was 41 ×10⁻⁶ cm/s, the Papp A→B [13] was 10 ×10⁻⁶ cm/s and the microsomal CLint [18] was 50 µL/min/mg.
With `CN(c1nnc(-c2ccc(-c3cnn(C)c3)cc2O)s1)C1CC(C)(C)NC(C)(C)C1` the EC50 [3] was 32 nM, the “fold change (FC)” value [4] was 3.1 and the AUC at 7 h [5] was 0.554 µM·h. The clearance [6] was 71 mL/min/kg, the Vd [7] was 7 L/kg and the Cmax [8] was 50 nM. The half-life [9] was 2 h, the Papp B→A [10] was 2.5 ×10⁻⁶ cm/s and the Papp A→B [11] was 2.4 ×10⁻⁶ cm/s.
In the case of `CN(c1nnc(-c2ccc(C#N)cc2O)s1)C1CC(C)(C)NC(C)(C)C1`, the EC50 [3] is reported as 8800 nM and the “fold change (FC)” value [4] is reported as 1.9.
With `CN(c1nnc(-c2ccc(-c3cnn(C)c3)cn2)s1)C1CC(C)(C)NC(C)(C)C1` the EC50 [3] was 680 nM and the “fold change (FC)” value [4] was 2.3.
For `CN(c1nnc(-c2ccc(-c3cnn(C)c3)cc2C(F)(F)F)s1)C1CC(C)(C)NC(C)(C)C1`, the EC50 [3] was over 30000 nM and the “fold change (FC)” value [4] was 1.3.
For `COc1cc(C#N)ccc1-c1nnc(N(C)C2CC(C)(C)NC(C)(C)C2)s1`, the EC50 [3] was 1000 nM and the “fold change (FC)” value [4] was 2.2.
With `CN(c1nnc(-c2ccc(-n3cccn3)cc2)s1)C1CC(C)(C)NC(C)(C)C1` the EC50 [3] was 1100 nM and the “fold change (FC)” value [4] was 2.8.
With `CN(c1nnc(-c2cc(-n3cccn3)ccc2O)s1)C1CC(C)(C)NC(C)(C)C1` the EC50 [3] was 1000 nM and the “fold change (FC)” value [4] was 2.3.
In the case of `CN(c1nnc(-c2c(O)cc(-c3cn[nH]c3)c(F)c2F)s1)C1CC(C)(C)NC(C)(C)C1`, the EC50 [3] is reported as 3 nM, the “fold change (FC)” value [4] is reported as 2.7 and the solubility thermodynamic [2] is reported as 150 µM (≈ 67.3 µg/mL). For the same molecule, the Papp B→A [12] was 23 ×10⁻⁶ cm/s, the Papp A→B [13] was 8 ×10⁻⁶ cm/s and the microsomal CLint [18] was 67 µL/min/mg.
With `CN(c1nnc(-c2cc3ccccc3s2)s1)C1CC(C)(C)NC(C)(C)C1` the EC50 [3] was 4470 nM, the “fold change (FC)” value [4] was 1.7 and the microsomal CLint [1] was under 3 µL/min/mg. The solubility thermodynamic [2] was over 1000 µM.
For `CN(c1nnc(-c2cc3cc(C#N)ccc3s2)s1)C1CC(C)(C)NC(C)(C)C1`, the EC50 [3] was 540 nM, the “fold change (FC)” value [4] was 2.7 and the microsomal CLint [1] was 12 µL/min/mg. It also gave a solubility thermodynamic [2] of 170 µM (≈ 70 µg/mL).
In the case of `COc1cc(-n2cccn2)ccc1-c1nnc(N(C)C2CC(C)(C)NC(C)(C)C2)s1`, the EC50 [3] is reported as 62 nM, the “fold change (FC)” value [4] is reported as 2.5 and the AUC at 7 h [5] is reported as 0.895 µM·h. The clearance [6] was 72 mL/min/kg, the Vd [7] was 10.9 L/kg and the Cmax [8] was 221 nM. The half-life [9] was 1.9 h, the Papp B→A [10] was 6.9 ×10⁻⁶ cm/s and the Papp A→B [11] was 13.8 ×10⁻⁶ cm/s.
